# Source: ChEMBL document CHEMBL1150976, “The selectivity of protein kinase inhibitors: a further update” (Biochem J, 2007)
# Assays:
# [1] = biological target: Tyrosine-protein kinase CSK (Homo sapiens, UniProt P41240); assay: Percentage CSK activity remaining in the presence of 3uM inhibitor
# [2] = biological target: MAP kinase-activated protein kinase 2 (Homo sapiens) (UniProt P49137); assay: Percentage MAPKAPK2 activity remaining in the presence of 3uM inhibitor
# [3] = biological target: T1, Serine/threonine-protein kinase Sgk1 (Homo sapiens) (UniProt O00141); assay: Percentage SGK1 activity remaining in the presence of 3uM inhibitor
# T1 sequence (whole entry): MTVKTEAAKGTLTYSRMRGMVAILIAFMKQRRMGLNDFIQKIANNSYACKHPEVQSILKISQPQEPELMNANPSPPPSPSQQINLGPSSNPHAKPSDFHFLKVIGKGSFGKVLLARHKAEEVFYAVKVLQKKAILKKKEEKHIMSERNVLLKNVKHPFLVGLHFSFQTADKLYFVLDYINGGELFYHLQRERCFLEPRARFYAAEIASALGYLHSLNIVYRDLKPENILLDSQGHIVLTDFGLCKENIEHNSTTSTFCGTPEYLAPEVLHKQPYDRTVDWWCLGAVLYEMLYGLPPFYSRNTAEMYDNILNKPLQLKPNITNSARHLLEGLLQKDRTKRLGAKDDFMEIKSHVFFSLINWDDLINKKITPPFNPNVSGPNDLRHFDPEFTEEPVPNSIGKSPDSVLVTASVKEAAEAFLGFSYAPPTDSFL
# Homo sapiens = species on record: Homo sapiens; assay: Percentage PHK activity remaining in the presence of 3uM inhibitor
# [4] = biological target: T2, Serine/threonine-protein kinase Nek2 (Homo sapiens) (UniProt P51955); assay: Percentage NEK2a activity remaining in the presence of 3uM inhibitor
# T2 sequence (whole entry): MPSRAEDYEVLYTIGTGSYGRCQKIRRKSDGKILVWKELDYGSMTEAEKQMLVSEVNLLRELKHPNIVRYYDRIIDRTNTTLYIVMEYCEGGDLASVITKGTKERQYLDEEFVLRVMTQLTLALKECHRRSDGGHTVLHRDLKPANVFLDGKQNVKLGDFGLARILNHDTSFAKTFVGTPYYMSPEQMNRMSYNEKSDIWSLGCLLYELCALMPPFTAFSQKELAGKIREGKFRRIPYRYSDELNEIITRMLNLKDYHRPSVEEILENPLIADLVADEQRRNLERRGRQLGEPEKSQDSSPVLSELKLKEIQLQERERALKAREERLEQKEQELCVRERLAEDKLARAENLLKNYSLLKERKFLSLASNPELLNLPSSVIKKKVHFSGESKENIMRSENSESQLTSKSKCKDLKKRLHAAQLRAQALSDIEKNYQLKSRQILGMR
# [5] = biological target: Mitogen-activated protein kinase 1 (Homo sapiens) (UniProt P28482); assay: Percentage ERK2 activity remaining in the presence of 3uM inhibitor
# Chain of Mitogen-activated protein kinase 1 (Homo sapiens) (P28482 whole entry): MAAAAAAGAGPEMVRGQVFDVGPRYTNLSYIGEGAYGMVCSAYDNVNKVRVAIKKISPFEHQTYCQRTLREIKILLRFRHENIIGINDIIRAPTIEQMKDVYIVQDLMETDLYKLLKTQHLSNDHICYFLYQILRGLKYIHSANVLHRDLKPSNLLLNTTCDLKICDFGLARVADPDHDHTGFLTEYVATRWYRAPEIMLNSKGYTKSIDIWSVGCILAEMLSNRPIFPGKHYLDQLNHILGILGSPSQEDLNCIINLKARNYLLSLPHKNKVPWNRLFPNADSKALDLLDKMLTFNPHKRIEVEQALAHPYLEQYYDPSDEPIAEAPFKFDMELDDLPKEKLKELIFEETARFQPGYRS
# [6] = biological target: cAMP-dependent protein kinase catalytic subunit alpha (Homo sapiens, UniProt P17612); assay: Percentage PKA activity remaining in the presence of 3uM inhibitor
# [7] = biological target: Calcium/calmodulin-dependent protein kinase kinase 1 (Homo sapiens) (UniProt Q8N5S9); assay: Percentage CaMKKalpha activity remaining in the presence of 2uM inhibitor
# Chain of Calcium/calmodulin-dependent protein kinase kinase 1 (Homo sapiens) (Q8N5S9 whole entry, looked up): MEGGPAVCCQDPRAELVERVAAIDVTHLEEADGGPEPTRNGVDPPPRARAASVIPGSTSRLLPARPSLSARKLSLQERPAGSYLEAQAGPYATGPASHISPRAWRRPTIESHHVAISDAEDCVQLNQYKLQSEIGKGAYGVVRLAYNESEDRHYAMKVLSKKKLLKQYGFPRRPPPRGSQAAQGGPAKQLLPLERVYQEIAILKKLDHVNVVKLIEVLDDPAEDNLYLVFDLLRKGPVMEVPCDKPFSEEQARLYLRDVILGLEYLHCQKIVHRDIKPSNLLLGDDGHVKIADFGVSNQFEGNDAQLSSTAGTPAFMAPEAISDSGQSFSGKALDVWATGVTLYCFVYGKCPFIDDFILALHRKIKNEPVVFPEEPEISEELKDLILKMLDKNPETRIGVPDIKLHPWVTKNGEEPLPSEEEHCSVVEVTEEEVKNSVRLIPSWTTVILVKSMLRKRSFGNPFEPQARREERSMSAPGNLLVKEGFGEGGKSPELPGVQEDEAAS
# [8] = biological target: RAC-alpha serine/threonine-protein kinase (Homo sapiens) (UniProt P31749); assay: Percentage PKBalpha activity remaining in the presence of 2uM inhibitor
# Chain of RAC-alpha serine/threonine-protein kinase (Homo sapiens) (P31749 whole entry): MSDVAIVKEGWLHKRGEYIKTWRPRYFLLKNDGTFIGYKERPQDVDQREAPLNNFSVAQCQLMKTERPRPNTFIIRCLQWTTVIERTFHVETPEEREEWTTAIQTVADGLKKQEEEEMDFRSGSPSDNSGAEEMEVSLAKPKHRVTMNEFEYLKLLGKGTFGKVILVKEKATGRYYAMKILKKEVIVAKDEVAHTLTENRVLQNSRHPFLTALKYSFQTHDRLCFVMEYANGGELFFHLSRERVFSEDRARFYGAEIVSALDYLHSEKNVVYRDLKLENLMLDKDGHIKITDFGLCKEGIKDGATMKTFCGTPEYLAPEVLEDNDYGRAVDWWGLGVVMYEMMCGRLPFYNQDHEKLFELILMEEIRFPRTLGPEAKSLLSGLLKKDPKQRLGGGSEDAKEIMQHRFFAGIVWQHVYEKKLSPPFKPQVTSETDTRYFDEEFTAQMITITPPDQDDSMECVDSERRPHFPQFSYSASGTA
# [9] = biological target: Mitogen-activated protein kinase 9 (Homo sapiens, UniProt P45984); assay: Percentage JNK2 activity remaining in the presence of 2uM inhibitor
# Chain of Mitogen-activated protein kinase 9 (P45984 whole entry, looked up): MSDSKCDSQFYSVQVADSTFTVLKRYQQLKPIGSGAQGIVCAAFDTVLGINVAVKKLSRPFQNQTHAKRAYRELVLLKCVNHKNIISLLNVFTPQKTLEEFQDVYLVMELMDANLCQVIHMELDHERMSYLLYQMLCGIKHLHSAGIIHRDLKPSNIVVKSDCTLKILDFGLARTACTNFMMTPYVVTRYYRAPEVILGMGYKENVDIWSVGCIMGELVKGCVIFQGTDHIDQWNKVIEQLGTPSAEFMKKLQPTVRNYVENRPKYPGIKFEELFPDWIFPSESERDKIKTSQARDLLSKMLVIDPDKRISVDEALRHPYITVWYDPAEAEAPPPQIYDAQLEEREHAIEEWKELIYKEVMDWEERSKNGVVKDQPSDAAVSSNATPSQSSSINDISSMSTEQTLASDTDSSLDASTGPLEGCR
# [10] = biological target: Mitogen-activated protein kinase 10 (Homo sapiens) (UniProt P53779); assay: Percentage JNK3 activity remaining in the presence of 2uM inhibitor
# Chain of Mitogen-activated protein kinase 10 (Homo sapiens) (P53779 whole entry): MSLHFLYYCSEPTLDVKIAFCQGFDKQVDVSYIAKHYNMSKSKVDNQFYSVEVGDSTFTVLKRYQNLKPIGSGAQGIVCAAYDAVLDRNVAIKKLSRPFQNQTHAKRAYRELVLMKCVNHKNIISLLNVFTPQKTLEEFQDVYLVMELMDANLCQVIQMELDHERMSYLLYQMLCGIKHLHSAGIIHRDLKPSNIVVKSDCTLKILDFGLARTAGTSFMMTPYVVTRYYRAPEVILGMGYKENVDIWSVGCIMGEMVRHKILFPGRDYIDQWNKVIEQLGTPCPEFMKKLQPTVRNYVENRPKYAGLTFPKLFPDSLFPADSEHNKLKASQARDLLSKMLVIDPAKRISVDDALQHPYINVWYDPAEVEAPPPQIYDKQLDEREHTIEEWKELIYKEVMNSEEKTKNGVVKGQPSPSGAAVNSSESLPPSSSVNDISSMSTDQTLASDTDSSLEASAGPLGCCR
# [11] = biological target: T3, Serine/threonine-protein kinase 3 (Homo sapiens) (UniProt Q13188); assay: Percentage MST2 activity remaining in the presence of 2uM inhibitor; conditions: filed as antagonist
# T3 sequence (whole entry): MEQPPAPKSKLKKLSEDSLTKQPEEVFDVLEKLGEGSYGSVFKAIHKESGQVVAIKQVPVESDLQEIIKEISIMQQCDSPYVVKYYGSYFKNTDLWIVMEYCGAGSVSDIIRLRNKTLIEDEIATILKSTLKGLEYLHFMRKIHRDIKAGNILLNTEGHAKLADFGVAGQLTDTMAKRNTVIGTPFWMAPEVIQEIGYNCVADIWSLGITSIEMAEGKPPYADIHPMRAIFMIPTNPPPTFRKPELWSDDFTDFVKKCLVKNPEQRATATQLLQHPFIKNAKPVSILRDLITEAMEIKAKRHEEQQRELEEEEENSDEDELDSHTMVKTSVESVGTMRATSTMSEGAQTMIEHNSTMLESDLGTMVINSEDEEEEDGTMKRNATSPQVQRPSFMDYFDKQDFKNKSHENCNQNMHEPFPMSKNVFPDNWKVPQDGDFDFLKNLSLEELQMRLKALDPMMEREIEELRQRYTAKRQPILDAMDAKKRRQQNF
# [12] = biological target: T4, Inhibitor of nuclear factor kappa-B kinase subunit beta (Homo sapiens) (UniProt O14920); assay: Percentage IKK-beta activity remaining in the presence of 2uM inhibitor
# T4 sequence (whole entry): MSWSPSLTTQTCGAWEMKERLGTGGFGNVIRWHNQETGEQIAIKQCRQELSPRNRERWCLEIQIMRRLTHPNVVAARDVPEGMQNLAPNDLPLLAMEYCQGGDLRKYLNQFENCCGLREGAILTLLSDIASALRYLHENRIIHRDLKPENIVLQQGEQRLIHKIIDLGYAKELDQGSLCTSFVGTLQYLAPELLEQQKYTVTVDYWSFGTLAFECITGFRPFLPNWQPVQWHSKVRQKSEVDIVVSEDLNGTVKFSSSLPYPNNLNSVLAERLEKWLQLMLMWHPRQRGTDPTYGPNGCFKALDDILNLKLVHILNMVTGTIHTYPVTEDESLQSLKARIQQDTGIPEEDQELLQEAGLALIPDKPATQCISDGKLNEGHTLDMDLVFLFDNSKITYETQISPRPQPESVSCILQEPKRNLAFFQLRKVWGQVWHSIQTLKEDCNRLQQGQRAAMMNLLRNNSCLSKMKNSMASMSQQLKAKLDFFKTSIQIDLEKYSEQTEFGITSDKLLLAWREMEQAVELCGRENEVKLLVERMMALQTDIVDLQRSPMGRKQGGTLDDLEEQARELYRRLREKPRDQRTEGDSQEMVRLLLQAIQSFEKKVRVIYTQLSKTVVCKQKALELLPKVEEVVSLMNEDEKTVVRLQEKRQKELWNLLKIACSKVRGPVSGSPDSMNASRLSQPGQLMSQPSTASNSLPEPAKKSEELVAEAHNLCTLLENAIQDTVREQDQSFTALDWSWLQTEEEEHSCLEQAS
# [13] = biological target: Maternal embryonic leucine zipper kinase (Homo sapiens) (UniProt Q14680); assay: Percentage MELK activity remaining in the presence of 2uM inhibitor
# Chain of Maternal embryonic leucine zipper kinase (Homo sapiens) (Q14680 whole entry, looked up): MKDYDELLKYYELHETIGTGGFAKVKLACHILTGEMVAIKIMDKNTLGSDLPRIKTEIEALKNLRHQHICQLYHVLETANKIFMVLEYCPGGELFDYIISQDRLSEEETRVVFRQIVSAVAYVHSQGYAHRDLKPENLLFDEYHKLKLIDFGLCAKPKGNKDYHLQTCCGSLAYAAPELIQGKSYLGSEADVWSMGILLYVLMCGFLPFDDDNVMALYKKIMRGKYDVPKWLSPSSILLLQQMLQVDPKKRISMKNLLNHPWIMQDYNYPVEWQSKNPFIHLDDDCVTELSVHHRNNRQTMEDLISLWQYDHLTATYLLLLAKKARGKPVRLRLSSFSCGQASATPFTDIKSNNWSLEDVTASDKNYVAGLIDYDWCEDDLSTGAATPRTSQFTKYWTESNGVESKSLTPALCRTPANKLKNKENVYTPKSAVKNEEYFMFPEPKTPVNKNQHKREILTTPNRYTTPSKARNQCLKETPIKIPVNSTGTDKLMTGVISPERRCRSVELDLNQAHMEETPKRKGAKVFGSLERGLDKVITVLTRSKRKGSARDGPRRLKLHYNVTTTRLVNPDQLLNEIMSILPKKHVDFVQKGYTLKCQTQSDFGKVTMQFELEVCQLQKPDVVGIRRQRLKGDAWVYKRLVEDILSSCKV
# [14] = biological target: MAP/microtubule affinity-regulating kinase 3 (Homo sapiens) (UniProt P27448); assay: Percentage MARK3 activity remaining in the presence of 2uM inhibitor
# Chain of MAP/microtubule affinity-regulating kinase 3 (Homo sapiens) (P27448 whole entry, looked up): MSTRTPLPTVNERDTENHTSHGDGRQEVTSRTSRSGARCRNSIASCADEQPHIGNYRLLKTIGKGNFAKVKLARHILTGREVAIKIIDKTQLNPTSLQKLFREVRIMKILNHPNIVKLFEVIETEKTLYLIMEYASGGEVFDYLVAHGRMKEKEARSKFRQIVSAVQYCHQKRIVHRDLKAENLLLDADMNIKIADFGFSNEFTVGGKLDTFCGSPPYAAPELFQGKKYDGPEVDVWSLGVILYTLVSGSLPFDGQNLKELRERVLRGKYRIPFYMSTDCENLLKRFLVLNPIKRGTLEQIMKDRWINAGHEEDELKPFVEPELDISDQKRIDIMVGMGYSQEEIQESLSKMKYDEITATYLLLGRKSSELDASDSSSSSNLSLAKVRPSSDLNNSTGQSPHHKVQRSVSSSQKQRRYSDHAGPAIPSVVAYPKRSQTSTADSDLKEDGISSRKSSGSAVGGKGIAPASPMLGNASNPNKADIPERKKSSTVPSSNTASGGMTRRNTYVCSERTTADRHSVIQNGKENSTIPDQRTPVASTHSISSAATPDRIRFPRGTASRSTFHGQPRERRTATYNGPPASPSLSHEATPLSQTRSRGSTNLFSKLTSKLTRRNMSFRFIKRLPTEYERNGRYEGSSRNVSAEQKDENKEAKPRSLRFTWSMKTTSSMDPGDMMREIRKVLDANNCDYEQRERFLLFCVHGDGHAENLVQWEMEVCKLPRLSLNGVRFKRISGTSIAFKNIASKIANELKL
# [15] = biological target: Ribosomal protein S6 kinase beta-1 (Homo sapiens, UniProt P23443); assay: Percentage S6K1 activity remaining in the presence of 2uM inhibitor
# Chain of Ribosomal protein S6 kinase beta-1 (P23443 whole entry, looked up): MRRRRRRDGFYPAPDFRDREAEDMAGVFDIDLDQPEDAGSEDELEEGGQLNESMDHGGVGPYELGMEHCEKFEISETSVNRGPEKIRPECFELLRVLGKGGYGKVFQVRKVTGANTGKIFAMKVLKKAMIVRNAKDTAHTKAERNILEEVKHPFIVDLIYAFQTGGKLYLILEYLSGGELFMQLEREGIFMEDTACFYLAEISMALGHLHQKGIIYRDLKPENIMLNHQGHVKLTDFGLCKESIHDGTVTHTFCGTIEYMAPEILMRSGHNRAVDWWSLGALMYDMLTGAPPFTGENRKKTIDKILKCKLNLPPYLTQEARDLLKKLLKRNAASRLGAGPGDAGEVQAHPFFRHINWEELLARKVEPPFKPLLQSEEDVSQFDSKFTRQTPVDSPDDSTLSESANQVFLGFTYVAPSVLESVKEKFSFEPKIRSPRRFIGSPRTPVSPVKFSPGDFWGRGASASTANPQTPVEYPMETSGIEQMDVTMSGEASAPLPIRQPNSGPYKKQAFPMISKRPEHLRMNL
# Chain of Tyrosine-protein kinase CSK (P41240 2-450 limits assumed): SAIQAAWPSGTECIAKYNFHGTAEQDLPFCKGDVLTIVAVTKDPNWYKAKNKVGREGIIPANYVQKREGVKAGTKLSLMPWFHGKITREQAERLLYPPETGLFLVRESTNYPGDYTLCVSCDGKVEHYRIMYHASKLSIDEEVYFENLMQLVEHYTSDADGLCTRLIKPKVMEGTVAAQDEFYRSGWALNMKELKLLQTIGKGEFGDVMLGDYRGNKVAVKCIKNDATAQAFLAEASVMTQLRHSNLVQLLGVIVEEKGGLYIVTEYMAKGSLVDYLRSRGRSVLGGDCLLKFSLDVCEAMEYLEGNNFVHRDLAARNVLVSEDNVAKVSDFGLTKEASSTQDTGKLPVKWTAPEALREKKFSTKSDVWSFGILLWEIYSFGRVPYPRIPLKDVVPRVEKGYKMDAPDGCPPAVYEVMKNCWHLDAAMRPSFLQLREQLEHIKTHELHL
Activity [1] [%],Activity [2] [%],Activity [3] [%],Activity (Homo sapiens) [%],Activity [4] [%],Activity [5] [%],Activity [6] [%],Activity [7] [%],Activity [8] [%],Activity [9] [%],Activity [10] [%],Activity [11] [%],Activity [12] [%],Activity [13] [%],Activity [14] [%],Activity [15] [%],Structure (SMILES)
55,94,107,93,95,79,85,,,,,,,,,,Cc1ccc(-c2c(C(=O)CF)n(CCCO)c3ncnc(N)c23)cc1
,,,,,,,85,88,85,88,50,99,78,76,86,Cn1cc(C2=C(c3ccc(Cl)cc3Cl)C(=O)NC2=O)c2ccccc21
